# Columns and labels:
# Adenylate cyclase = test: Study of adenylate cyclase activation (ATP to cAMP, radioimmunological assay); format: biochemical, rat; settings: 1 mg/ml; for Enzymatic activity relative to the control (adenylate cyclase): forskolin 10 μM, ATP 0.5 mM, 30 minutes at 30° C.
# Experimental: The influence of N-undecylenoylphenylalanine, kojic acid and arbutin on the conversion of ATP into cAMP was compared via a radioimmunological assay.
# Adenylate cyclase, which converts ATP into cAMP, is extracted from rat brains via the method described in “Salamon Y., Londos C. and Rodbell M.; Anal. Biochem., 58, 1974, 541-548”; it is then activated with 10 μM of forskolin.
# They are each tested separately at a concentration of 1 mg/ml. Sodium hydroxide has no effect on the parameter studied.
# The activated enzyme is incubated, in the presence or absence of these products, and in the presence of 0.5 mM of ATP, for 30 minutes at 30° C.
# Control cultures are incubated, in the absence of product, and in the presence of ATP. Each test is performed in triplicate.
# After incubation for 30 minutes, the amount of cAMP produced is evaluated via a radioimmunological assay performed using a commercial kit; the radioactivity is measured with a scintillation counter (Topcount, Packard), a small radioactivity count reflecting small activation of adenylate cyclase.
# The results given in the table below are the means of the three tests performed for each of the products. They are expressed as a percentage of enzymatic activity relative to the control group and as a percentage of inhibition.
# Protein kinase A = test: Study of protein kinase A activity (phosphorylation of histone H1); format: biochemical, bovine; settings: 1 mg/ml; for Enzymatic activity relative to the control (protein kinase A): cAMP 3 μM, histone H1 200 μg/ml, 20 minutes at 30° C.
# Experimental: The influence of N-undecylenoylphenylalanine, kojic acid and arbutin on the phosphorylation of […] with protein kinase A (PK A) was compared. Protein kinase A is extracted from bovine brains via the method described in: “[…]., Sano M., Hayashi K., Inoue T., Naito […]. Biol. Chem., 265, 1990, 5267-5272”. […] Sodium hydroxide has no effect on the parameter studied. […] Control cultures are incubated, in the absence of product, and in the presence of radioactive ATP and histone H1. Each test is performed in triplicate. […] The results given in the table below are the means of the three tests performed for each of the products. They are expressed as a percentage of enzymatic activity relative to the control group and as a percentage of inhibition.
# [1] = tested on: B16/F1 melanocyte cultures; test: Extracellular melanin content in B16/F1 melanocyte cultures; format: cell-based, mouse; settings: 72 hours; for Extracellular melanin: control 43 ± 11 μg/ml
# Experimental: Mouse melanocytes of the B16/F1 line are inoculated in 96-well culture plates at a density of 1500 cells/well. […] The cells are used at 60% of confluence, i.e. 4 days after inoculation. The MCM medium has the following composition: […] N-Undecylenoylphenylalanine is diluted to 4 mg/ml in decinormal aqueous sodium hydroxide solution. It is tested at 40 μg/ml in the MCM medium. Sodium hydroxide has no effect on the parameters analyzed. […] Given its toxicity, it is not tested at 40 μg/ml. […] Control cultures are incubated, in the absence of product, in the MCM medium. These control cultures are prepared on each culture plate. Each test is performed six times. After incubation for 72 hours, the incubation media of the cells (n=6) are taken up and stored at -80° C. until the time of evaluation of the effects. The extracellular melanin is quantified by spectrophotometry at 450 nm. A melanin calibration range is prepared in parallel. The results are expressed as μg/ml of extracellular […] a percentage of inhibition relative to the control group.
# [2] = tested on: B16/F1 melanocyte cultures; test: Intracellular melanin content in B16/F1 melanocyte cultures; format: cell-based, mouse; settings: 72 hours; for Intracellular melanin obtained: control 20 ± 4 μg/ml
# Experimental: Mouse melanocytes of the B16/F1 line are inoculated in 96-well culture plates at a density of 1500 cells/well. […] The cells are used at 60% of confluence, i.e. 4 days after inoculation. The MCM medium has the following composition: […] N-Undecylenoylphenylalanine is diluted to 4 mg/ml in decinormal aqueous sodium hydroxide solution. It is tested at 40 μg/ml in the MCM medium. Sodium hydroxide has no effect on the parameters analyzed. […] Given its toxicity, it is not tested at 40 μg/ml. […] Control cultures are incubated, in the absence of product, in the MCM medium. These control cultures are prepared on each culture plate. Each test is performed six times. After incubation for 72 hours, a portion of the cell carpet (n=3) is rinsed with phosphate-buffered saline (PBS; pH=7.4), the composition of which is as follows: NaCl: 8 g/l, Na2HPO4: 1.15 g/l; […] The intracellular melanin is quantified by spectrophotometry at 450 nm. A melanin calibration range is prepared in parallel. The results are expressed as μg/ml of intracellular melanin and as a percentage of inhibition relative to the control group.
# [3] = tested on: Pigmented human epidermides (phototype IV); test: Chromametric measurement of the epidermal pigmentation in reconstructed human epidermides; format: cell-based; settings: for L* (% of the control group) / a* (% of the control group) / b* (% of the control group) / b* / a* / L*: topical, 4 days; for b*: control 7.54 ± 0.00 AU; for a*: control 10.23 ± 0.51 AU; for L*: control 41.38 ± 0.69 AU
# Experimental: Pigmented human epidermides (phototype IV) supplied by Skinethic, of 0.63 cm^2, are reconstructed from a coculture of normal human keratinocytes (skin of the forearm, donor, 2nd passage) and from normal human melanocytes (skin of the forearm, donor of phototype IV, 3rd passage). The keratinocyte/melanocyte ratio is 10:1. The cocultures are inoculated onto inert polycarbonate filters. They are cultured for 10 days in the medium supplied by Skinethic, consisting of MCDB 153 medium supplemented with 5 μg/ml of insulin, 1.5 mM of calcium and growth factors. […] The epidermides are cultured in 6-well plates containing 1 ml of the medium described above. […] The application is performed every day for 4 consecutive days. The incubation medium of the reconstructed epidermides is renewed every day for 4 consecutive days. Control epidermides are treated with a formulation free of active principle. Each test is performed in duplicate. Three days after the final topical application, the color of the epidermides is evaluated using a chromameter (Minolta) by measuring the following parameters L*, a* and b*: • L* is the lightness index. A depigmenting product should increase this parameter; • a* represents the color spectrum from […]. A depigmenting product should reduce this parameter; • b*: represents the color spectrum from […]. A depigmenting product should reduce this parameter. The results are expressed in arbitrary units (AU) of each parameter and as a percentage of the control group.
# [4] = listed as N-undecylenoylphenylalanine
# [5] = Mus musculus, B16-F1, at 40 μg/ml, read-out: Inhibition of extracellular melanin production
# [6] = Mus musculus, B16-F1, at 40 μg/ml, read-out: Inhibition of intracellular melanin production
# [7] = topical application at 1% and 3% (w/v) in an emulsion
SMILES,Inhibition of adenylate cyclase activity (Adenylate cyclase),Enzymatic activity relative to the control (adenylate cyclase) (Adenylate cyclase),Inhibition of protein kinase A activity (Protein kinase A),Enzymatic activity relative to the control (protein kinase A) (Protein kinase A),"inhibition at 40 µg/mL [1, 5]",Extracellular melanin ([1]; at 40 μg/ml),"inhibition at 40 µg/mL [2, 6]",Intracellular melanin obtained ([2]; at 40 μg/ml),L* (% of the control group) ([3]; formulated at 1% (w/v)),a* (% of the control group) ([3]; formulated at 1% (w/v)),b* (% of the control group) ([3]; formulated at 1% (w/v)),b* ([3]; formulated at 1% (w/v)),a* ([3]; formulated at 1% (w/v)),L* ([3]; formulated at 1% (w/v)),L* (% of the control group) ([3]; formulated at 3% (w/v)),a* (% of the control group) ([3]; formulated at 3% (w/v)),b* (% of the control group) ([3]; formulated at 3% (w/v)),b* ([3]; formulated at 3% (w/v)),a* ([3]; formulated at 3% (w/v)),L* ([3]; formulated at 3% (w/v)),also measured
"C=CCCCCCCCCC(=O)NC(Cc1ccccc1)C(=O)O (stereo not shown) [N-Undecylenoylphenylalanine, N-(ω-undecylenoyl)phenylalanine]",100%,−16.0 ± 0.5%,100%,−0.4 ± 0.3%,72%,12 ± 1 µg/mL,66%,7 ± 3 µg/mL,0%,−12%,−21%,5.96 ± 0.42 AU,9.01 ± 1.33 AU,41.34 ± 1.15 AU,+9%,−14%,−29%,5.38 ± 0.06 AU,8.78 ± 0.52 AU,45.228 ± 1.49 AU,"Inhibition of adenylate cyclase activity (Adenylate cyclase; [4]): total inactivation; Inhibition of protein kinase A activity (Protein kinase A; [4]): totally inhibits; reduction of the a* color parameter ([3]; concentration of 3% (w/v)): 14%; reduction of the b* color parameter ([3]; concentration of 3% (w/v)): 29%; L* (% of the control group) ([3]; formulated at 3% (w/v), listed as N-undecylenoylphenylalanine): 9%; inhibition of the b* color parameter ([3]; topical application at 1% (w/v) in an emulsion): 15%"
"O=c1cc(CO)occ1O [Kojic acid, kojic acid]",55%,–,0%,–,70%,13 ± 2 µg/mL,17%,17 ± 1 µg/mL,+3%,+7%,+3%,7.67 ± 0.03 AU,10.90 ± 0.51 AU,40.11 ± 1.41 AU,0%,−8%,−5%,7.13 ± 0.09 AU,9.36 ± 1.02 AU,41.69 ± 0.65 AU,"Inhibition of adenylate cyclase activity (Adenylate cyclase; listed as kojic acid): moderate effect; effect on the chromametric parameters L*, a* and b* [3, 7]: no significant effect"
"Oc1ccc(O)cc1 [Hydroquinone, hydroquinone]",–,–,–,–,–,–,–,–,–,–,–,–,–,–,–,–,–,–,–,–,"inhibition at 5 µg/mL ([1]; Mus musculus, B16-F1, at 5 μg/ml, read-out: Inhibition of extracellular melanin production): 85%; Extracellular melanin ([1]; at 5 μg/ml): 7 ± 1 µg/mL; inhibition at 5 µg/mL ([2]; Mus musculus, B16-F1, at 5 μg/ml, read-out: Inhibition of intracellular melanin production): 100%; Intracellular melanin obtained ([2]; at 5 μg/ml): 0.2 ± 0.1 µg/mL; L* (% of the control group) ([3]; formulated at 0.1% (w/v)): −9%; a* (% of the control group) ([3]; formulated at 0.1% (w/v)): 0%; b* (% of the control group) ([3]; formulated at 0.1% (w/v)): +3%; b* ([3]; formulated at 0.1% (w/v)): 7.73 ± 0.03 AU; a* ([3]; formulated at 0.1% (w/v)): 10.19 ± 1.21 AU; L* ([3]; formulated at 0.1% (w/v)): 40.59 ± 2.41 AU; effect on the chromametric parameters L*, a* and b* ([3]; topical application at 0.1% (w/v) in an emulsion): no significant effect"
"OC[C@H]1O[C@@H](Oc2ccc(O)cc2)[C@H](O)[C@@H](O)[C@@H]1O [Arbutin, arbutin]",0%,109.7 ± 4.6%,9.1%,90.9 ± 8.4%,47%,23 ± 6 µg/mL,19%,16 ± 2 µg/mL,+2%,−2%,+1%,7.64 ± 0.19 AU,10.02 ± 0.13 AU,40.48 ± 0.85 AU,+1%,−4%,+3%,7.73 ± 0.34 AU,9.86 ± 0.18 AU,41.13 ± 0.54 AU,"Inhibition of adenylate cyclase activity (Adenylate cyclase; listed as arbutin): no effect; effect on the chromametric parameters L*, a* and b* [3, 7]: no significant effect"

# Source: US7871635B2, “Use of compound that inactivates protein kinase A in a composition containing a cosmetically acceptable medium for lightening the skin” (Societe d'Exploitation de Produits pour les Industries …, priority 2002, dated 2011)
